Reference: US20110002944A1, “Compositions and Methods to Promote Neural Cell Growth” (The Johns Hopkins University, priority 2006, published 2011)

Key:
FAK = assay: MAG-induced FAK tyrosine phosphorylation in hippocampal neurons (IP anti-FAK, immunoblot); format: cell-based, rat; conditions: echistatin 100 nM
Experimental: The question was next asked how β1-integrin signaling transduces MAG-induced neuronal responses. Focal adhesion kinase (FAK) is a major mediator of integrin-dependent signaling in many contexts, including cell migration and axon guidance (Nakamoto et al., 2004; Nikolopoulos and Gianotti, 2005; Xie and Tsai, 2004). […] MAG-induced FAK phosphorylation was abolished in the presence of echistatin (100 nM) or Ha2/5 ([…]) (FIG. 6B). […] The specific FAK tyrosine residues that become phosphorylated upon MAG stimulation in hippocampal neurons were next examined. […] Similar β1-integrin-dependent FAK phosphorylation of these tyrosine residues was also found in embryonic cortical neurons treated with MAG (data not shown).
Hippocampal neurons were isolated from embryonic and postnatal rats, or wild-type and NgR knockout mice (Zheng et al., 2005) as previously described (Song et al., 2002a; Song et al., 2002b). Similarly, cerebellar neurons were isolated from P5 rat cerebellum (Xiang et al., 2002). They were cultured on poly-L-lysine coated plates or coverslips as previously described (Song et al., 2002a; Song et al., 2002b). For biochemical analysis, embryonic day 18 (E18) neurons were treated with the agent AraC to eliminate dividing astrocytes and used at 5 days after plating as previously described (Song et al., 2002a; Song et al., 2002b). […]

β1-integrin = target: T1, β1-integrin (Rattus norvegicus, UniProt P49134); assay: Co-immunoprecipitation of MAG-Fc and β1-integrin in primary hippocampal neurons; format: binding; conditions: echistatin 100 nM; primary hippocampal cultures treated with MAG-Fc
T1 construct: endogenous in cells; host or cells: primary hippocampal neurons (E18, 5 days after plating)
Experimental: To determine whether β1-integrin interacts with myelin associated glycoprotein (MAG), cultured primary hippocampal neurons were treated with recombinant MAG consisting of the MAG extracellular domain fused to human Fc (MAG-Fc; see Experimental Procedures), a fusion protein previously shown to potently regulate neurite outgrowth and induce growth cone turning responses (Domeniconi et al., 2002; Henley et al., 2004; Liu et al., 2002; McKerracher et al., 1994; Shim et al., 2005; Song et al., 1998).
(§1) Hippocampal neurons were isolated from embryonic and postnatal rats, or wild-type and NgR knockout mice (Zheng et al., 2005) as previously described (Song et al., 2002a; Song et al., 2002b). Similarly, cerebellar neurons were isolated from P5 rat cerebellum (Xiang et al., 2002). They were cultured on poly-L-lysine coated plates or coverslips as previously described (Song et al., 2002a; Song et al., 2002b). For biochemical analysis, embryonic day 18 (E18) neurons were treated with the agent AraC to eliminate dividing astrocytes and used at 5 days after plating as previously described (Song et al., 2002a; Song et al., 2002b). For growth cone turning assay, neurons were used between 2-3 days after plating. […]

[1] = tested on: axonal growth cones of rat P5 hippocampal neurons; assay: Growth cone turning assay in an OMgp gradient, P5 hippocampal neurons; format: cell-based; conditions: for growth cone turning response to a gradient of the protein: 5 μg/ml in the pipette
Text: Three major myelin-associated inhibitory factors, Nogo-66, MAG and OMgp, are known to bind the common NgR protein, and may utilize the same signal transduction pathway to inhibit axonal extension (Domeniconi et al., 2002; Fournier et al., 2001; Liu et al., 2002; Wang et al., 2002b). Therefore, whether β1-integrin also mediates growth cone responses to other myelin-associated inhibitors was next considered. […] Thus, β1-integrin appears to specifically mediate acute axonal growth cone turning induced by MAG, but not by OMgp.
Hippocampal neurons were isolated from embryonic and postnatal rats, or wild-type and NgR knockout mice (Zheng et al., 2005) as previously described (Song et al., 2002a; Song et al., 2002b). Similarly, cerebellar neurons were isolated from P5 rat cerebellum (Xiang et al., 2002). They were cultured on poly-L-lysine coated plates or coverslips as previously described (Song et al., 2002a; Song et al., 2002b). For biochemical analysis, embryonic day 18 (E18) neurons were treated with the agent AraC to eliminate dividing astrocytes and used at 5 days after plating as previously described (Song et al., 2002a; Song et al., 2002b). For growth cone turning assay, neurons were used between 2-3 days after plating. PI-PLC (1 or 2 units/ml) (Wang et al., 2002b), Ha2/5 (1 μg/ml) or echistatin (100 nM) (Gan et al., 1988) were added for 30 mins prior to and were present during the biochemical analysis or the growth cone turning assay.
Microscopic gradients of recombinant MAG (150 μg/ml in the pipette) and OMgp (5 μg/ml in the pipette) were produced as previously described (Lohof et al., 1992; Song et al., 1998; Xiang et al., 2002). Axons were identified as the longest neurite in these cultures at the stage 2-3 of hippocampal neurons as previously described (Dotti et al., 1988). Growth cone assays were carried out at room temperature for 30 min. […] Statistical significance was assessed using ANOVA and accepted if p<0.01.

[2] = tested on: axonal growth cones of P5 rat hippocampal neurons; assay: Growth cone turning assay in a MAG gradient, P5 hippocampal neurons; format: cell-based
Experimental: To examine the functional role of β1-integrin in transducing MAG signaling in neuronal growth cones, growth cone turning assays were performed using rat hippocampal neurons. Growth cone turning assays are well-known and described in the art, for example by Song et al., 1998; Xiang et al., 2002; see also Experimental Procedures.
as §1
Microscopic gradients of recombinant MAG (150 μg/ml in the pipette) and OMgp (5 μg/ml in the pipette) were produced as previously described (Lohof et al., 1992; Song et al., 1998; Xiang et al., 2002). […] Statistical significance was assessed using ANOVA and accepted if p<0.01. […]

T1 sequence (P49134 21-799): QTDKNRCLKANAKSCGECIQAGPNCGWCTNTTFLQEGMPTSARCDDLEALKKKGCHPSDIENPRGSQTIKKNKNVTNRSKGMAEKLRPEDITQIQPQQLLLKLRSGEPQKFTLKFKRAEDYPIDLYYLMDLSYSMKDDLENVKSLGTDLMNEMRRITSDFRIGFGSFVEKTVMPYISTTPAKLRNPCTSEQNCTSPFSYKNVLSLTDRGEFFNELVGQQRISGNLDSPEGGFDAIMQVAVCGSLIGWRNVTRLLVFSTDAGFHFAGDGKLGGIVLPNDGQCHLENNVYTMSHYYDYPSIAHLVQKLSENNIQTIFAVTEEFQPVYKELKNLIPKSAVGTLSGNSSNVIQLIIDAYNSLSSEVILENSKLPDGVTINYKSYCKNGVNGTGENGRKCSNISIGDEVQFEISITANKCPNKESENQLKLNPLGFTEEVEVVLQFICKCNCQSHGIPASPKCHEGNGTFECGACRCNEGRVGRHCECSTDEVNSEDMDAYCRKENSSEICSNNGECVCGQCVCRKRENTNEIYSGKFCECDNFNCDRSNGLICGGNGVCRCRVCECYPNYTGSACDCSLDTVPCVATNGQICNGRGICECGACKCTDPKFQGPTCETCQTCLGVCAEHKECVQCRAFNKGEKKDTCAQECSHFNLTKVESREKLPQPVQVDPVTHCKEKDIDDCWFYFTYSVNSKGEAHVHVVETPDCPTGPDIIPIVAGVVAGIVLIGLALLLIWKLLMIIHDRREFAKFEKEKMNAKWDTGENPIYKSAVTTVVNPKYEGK

echistatin
effect on MAG-induced FAK phosphorylation (FAK): abolished
association between MAG and β1-integrin (co-immunoprecipitation) (β1-integrin): attenuated
effect on OMgp-induced growth cone repulsion ([1]; echistatin 100 nM, OMgp 5 μg/ml in the pipette): still exhibited significant repulsion
effect on MAG-induced growth cone repulsion ([2]; 100 nM echistatin, MAG 150 μg/ml in the pipette): completely abolished

B1: MAG-HI: heat-inactivated MAG (protein, UniProt P20916 20-626, looked up)
Myelin-associated glycoprotein: GHWGAWMPSSISAFEGTCVSIPCRFDFPDELRPAVVHGVWYFNSPYPKNYPPVVFKSRTQVVHESFQGRSRLLGDLGLRNCTLLLSNVSPELGGKYYFRGDLGGYNQYTFSEHSVLDIVNTPNIVVPPEVVAGTEVEVSCMVPDNCPELRPELSWLGHEGLGEPAVLGRLREDEGTWVQVSLLHFVPTREANGHRLGCQASFPNTTLQFEGYASMDVKYPPVIVEMNSSVEAIEGSHVSLLCGADSNPPPLLTWMRDGTVLREAVAESLLLELEEVTPAEDGVYACLAENAYGQDNRTVGLSVMYAPWKPTVNGTMVAVEGETVSILCSTQSNPDPILTIFKEKQILSTVIYESELQLELPAVSPEDDGEYWCVAENQYGQRATAFNLSVEFAPVLLLESHCAAARDTVQCLCVVKSNPEPSVAFELPSRNVTVNESEREFVYSERSGLVLTSILTLRGQAQAPPRVICTARNLYGAKSLELPFQGAHRLMWAKIGPVGAVVAFAILIAIVCYITQTRRKKNVTESPSFSAGDNPPVLFSSDFRISGAPEKYESERRLGSERRLLGLRGEPPELDLSYSHSDLGKRPTKDSYTLTEELAEYAEIRVK
modifications: heat-inactivated
growth cone turning response to a gradient of the protein ([2]; 150 μg/ml in the pipette, 30 min): no bias in the direction of axonal extension

B2: OMgp: recombinant oligodendrocyte-myelin glycoprotein (protein, UniProt P23515 25-417, looked up)
Oligodendrocyte-myelin …: ICPLQCICTERHRHVDCSGRNLSTLPSGLQENIIHLNLSYNHFTDLHNQLTQYTNLRTLDISNNRLESLPAHLPRSLWNMSAANNNIKLLDKSDTAYQWNLKYLDVSKNMLEKVVLIKNTLRSLEVLNLSSNKLWTVPTNMPSKLHIVDLSNNSLTQILPGTLINLTNLTHLYLHNNKFTFIPDQSFDQLFQLQEITLYNNRWSCDHKQNITYLLKWMMETKAHVIGTPCSTQISSLKEHNMYPTPSGFTSSLFTVSGMQTVDTINSLSVVTQPKVTKIPKQYRTKETTFGATLSKDTTFTSTDKAFVPYPEDTSTETINSHEAAAATLTIHLQDGMVTNTSLTSSTKSSPTPMTLSITSGMPNNFSEMPQQSTTLNLWREETTTNVKTPLPS
growth cone turning response to a gradient of the protein [1]: significant repulsive turning responses

B3: heat-inactivated Omgp: heat-inactivated OMgp (protein, UniProt P23515 25-417, looked up)
Oligodendrocyte-myelin …: ICPLQCICTERHRHVDCSGRNLSTLPSGLQENIIHLNLSYNHFTDLHNQLTQYTNLRTLDISNNRLESLPAHLPRSLWNMSAANNNIKLLDKSDTAYQWNLKYLDVSKNMLEKVVLIKNTLRSLEVLNLSSNKLWTVPTNMPSKLHIVDLSNNSLTQILPGTLINLTNLTHLYLHNNKFTFIPDQSFDQLFQLQEITLYNNRWSCDHKQNITYLLKWMMETKAHVIGTPCSTQISSLKEHNMYPTPSGFTSSLFTVSGMQTVDTINSLSVVTQPKVTKIPKQYRTKETTFGATLSKDTTFTSTDKAFVPYPEDTSTETINSHEAAAATLTIHLQDGMVTNTSLTSSTKSSPTPMTLSITSGMPNNFSEMPQQSTTLNLWREETTTNVKTPLPS
modifications: heat-inactivated
growth cone turning response to a gradient of the protein [1]: not
